Data reported in paper PMC8231256, “Influence of N-Methylation and Conformation on Almiramide Anti-Leishmanial Activity” (Molecules, 2021).
Where “and” joins values, the source holds several entries; their conditions need not be identical. Equal values may be shown once. Read-outs that look alike come from different tables or passages of the source. Where a SMILES comes first, the peptide text is derived from it. [ ]: non-standard residue; d: D form. The star is where a group is joined. NMeV = CN[C@H](C(=O)O)C(C)C; Hept6ynoyl = C#CCCCCC(=O)*; NMeA = CN[C@@H](C)C(=O)O; NH(CH2)6NH2 = NCCCCCCN*

Key:
Leishmania donovani = system: Leishmania donovani; set-up: method as in PMID 20441198; details: cited from earlier work; for selectivity index (CC50/EC50): Vero kidney cells CC50 vs L. donovani
[1] = LM-1 macrophage cytotoxicity (Alamar Blue); assay type: cell-based, murine; details: for CC50 at 24 h: mouse
Protocol: The host cytotoxicity was evaluated by monitoring the survival rates of murine LM-1 macrophage at different concentrations of peptides 15–37 ([…]) over 24 h. […] Exceptionally, MeAla peptide amide 21 was 3.2- to 8-fold less toxic than the other peptide analogs.
The LM1- macrophages were grown in DMEM supplemented with 10% heat inactivated FBS. Cells at the concentration of 100,000 cells/mL were cultivated for 24 h in a 96-well plate (37 °C, 5% CO2). The culture medium was removed and fresh medium containing the appropriate drug and concentration was added to the cells, which were incubated for 24 h (37 °C, 5% CO2). Seven different concentrations were tested ([…]) as well as controls (without drugs). After 24 h, the culture medium was removed and replaced for fresh medium containing 10% Alamar Blue (Thermo Fisher Scientific, Waltham, MA, USA) and incubated for 2 h (37 °C, 5% CO2). Readings at 570 and 600 nm (Asys UVM340 Plate reader, Biochrom, Cambridge, UK) were taken and analyzed according to the manufacturer protocol. Survival rates at different drug concentrations and CC50 values were calculated using the Excel software.

[2] = system: L. infantum (MHOM/MA/67/ITMAP-263) wild-type strain (WT) promastigotes; assay type: cell-based, Leishmania infantum; details: for EC50: 72 h; for Selectivity Index: SI = CC50 (LM-1 macrophage)/EC50 Ldi WT
Protocol: (§1) The biological activity of peptides 15–37 was assessed against the L. infantum wild-type stain (WT), as well as mutants resistant to the common anti-leishmanial agents, such as antimony (Sb^III), amphotericin B (AmB) and miltefosine (MF): Sb2000.1, AmB1000.1 and MF200.5. Activity against Leishmania promastigotes was determined by monitoring the replication of parasites after 72 h of incubation at 25 °C in the presence of increasing concentrations of the different peptides […] and reported as EC50 values (Table 2). […] The greatest potencies were observed using analogs against the amphotericin B resistant strain (e.g., AmB1000.1).
(§2) The L. infantum (MHOM/MA/67/ITMAP-263) wild-type stain (WT), as well as the resistant mutants Sb2000.1, AmB1000.1 and MF200.5 [53, 54, 55, 56, 57, 58], resistant to antimony (Sb^III), amphotericin B (AmB) and miltefosine (MF), respectively, were grown in M199 medium at 25 °C supplemented with 10% fetal bovine serum, 5 μg/mL of haemin at pH 7.0 and 2000 μM Sb (Potassium antimonyl tartrate, Sigma-Aldrich), 200 μM of MF (Miltefosine, Cayman Chem., Ann Arbor, MI, USA) or 1 μM AmB (Amphotericin B solution, Sigma, Oakville, ON, Canada). Antileishmanial values were determined in Leishmania promastigotes by monitoring the replication of parasites after 72 h of incubation at 25 °C in the presence of increasing concentrations of the different peptides by measuring A600 using a Cytation 5 machine (BioTek, Winooski, VT, USA). EC50 values were calculated based on dose–response curves analyzed by non-linear regression with GraphPad Prism 8.4.3 software (GraphPad Software, La Jolla, CA, USA). An average of at least three independent biological replicates from independent cultures was performed for each determination.

[3] = system: L. infantum Sb2000.1 (resistant to antimony) promastigotes; assay type: cell-based, Leishmania infantum; details: strain resistant to 2 mM antimonials, 72 h, 25 °C, 95% CI in brackets (n = 3), read-out: Ldi Sb-Res EC50
Protocol: as §1, §2

[4] = system: L. infantum MF200.5 (resistant to miltefosine) promastigotes; assay type: cell-based, Leishmania infantum; details: for EC50: strain resistant to 200 µM miltefosine, promastigotes, 72 h, 25 °C, 95% CI in brackets (n = 3), read-out: Ldi MF-Res EC50
Protocol: as §1, §2

[5] = system: L. infantum AmB1000.1 (resistant to amphotericin B) promastigotes; assay type: cell-based, Leishmania infantum; details: for EC50: strain resistant to 1 µM amphotericin B, promastigotes, 72 h, 25 °C, 95% CI in brackets (n = 3), read-out: Ldi AmB-Res EC50
Protocol: as §1, §2

[6] = MHOM/MA/67/ITMAP-263) wild-type strain (WT) promastigotes

Row | Molecule | selectivity index (CC50/EC50) (Leishmania donovani) | activity against Leishmania donovani (Leishmania donovani) | CC50 at 24 h [1] | EC50 [2, 6] | Selectivity Index [2] | EC50 [3] | EC50 [4] | EC50 [5] | EC50 ([2]; promastigotes, 25 °C, 95% confidence interval in brackets (n = 3), read-out: Ldi WT EC50) | CC50 [1] | fold more active than nonmethylated counterpart ([4]; MF200.5, 35 vs 31) | fold more active than nonmethylated counterpart ([5]; AmB1000.1, 17 vs 16, 35 vs 31)
1 | Almiramide C [compound 3] | 17.4 | low μM activity | – | – | – | – | – | – | – | – | – | –
2 | Almiramide B [compound 2] | 21.8 | low μM activity | – | – | – | – | – | – | – | – | – | –
3 | C#CCCCCC(=O)N[C@H](C(=O)N[C@H](C(=O)N[C@H](C(=O)N[C@@H](C)C(=O)N[C@@H](Cc1ccccc1)C(=O)O)C(C)C)C(C)C)C(C)C [peptide 15, HCC(CH2)4CO-Val-Val-Val-Ala-Phe-OH] (Hept6ynoyl-VVVAF-OH) | – | – | 316 µM | 44.7 µM | 7.0 | 60.3 µM | 50.8 µM | 46.4 µM | – | – | – | –
4 | C#CCCCCC(=O)Nn1c(C)cn([C@H](C(=O)N[C@H](C(=O)N[C@@H](C)C(=O)N[C@@H](Cc2ccccc2)C(=O)O)C(C)C)C(C)C)c1=O [peptide 36, HCC(CH2)4CO-(5-Me)Nai-Val-Val-Ala-Phe-OH] | – | – | 436 µM | – | – | > 300 µM | > 300 µM | > 300 µM | > 300 µM | – | – | –
5 | C#CCCCCC(=O)N[C@H](C(=O)N[C@H]1CCN([C@H](C(=O)N[C@@H](C)C(=O)N[C@@H](Cc2ccccc2)C(=O)NCCCCCCN)C(C)C)C1=O)C(C)C [peptide 30, HCC(CH2)4CO-Val-Agl-Val-Ala-Phe-NH(CH2)6NH2] | – | – | 407 µM | 47.4 µM | 8.6 | 37.6 µM | 129 µM | 114 µM | – | – | – | –
6 | C#CCCCCC(=O)N[C@H](C(=O)N[C@H](C(=O)N[C@H](C(=O)N(C)[C@@H](C)C(=O)N[C@@H](Cc1ccccc1)C(=O)NCCCCCCN)C(C)C)C(C)C)C(C)C [peptide 21, HCC(CH2)4CO-Val-Val-Val-Ala(Me)-Phe-NH(CH2)6NH2] (Hept6ynoyl-VVV[NMeA]F-{NH(CH2)6NH2}) | – | – | 1440 µM | 75.8 µM | 19.1 and 18.9 | 79.8 µM | 63.5 µM | 65.7 µM | – | – | – | –
7 | C#CCCCCC(=O)N(C)[C@H]1CCN([C@H](C(=O)N(C)[C@H](C(=O)N(C)[C@@H](C)C(=O)N(C)[C@@H](Cc2ccccc2)C(=O)O)C(C)C)C(C)C)C1=O [peptide 26, HCC(CH2)4CO-Agl(Me)-Val-Val(Me)-Ala-Phe(Me)-OH] | – | – | 316 µM | 217 µM | 1.46 | 220 µM | 224 µM | 252 µM | – | – | – | –
8 | C#CCCCCC(=O)N[C@H](C(=O)N[C@H](C(=O)N[C@H]1CCN([C@@H](C)C(=O)N[C@@H](Cc2ccccc2)C(=O)NCCCCCCN)C1=O)C(C)C)C(C)C [peptide 31, HCC(CH2)4CO-Val-Val-Agl-Ala-Phe-NH(CH2)6NH2] | – | – | 389 µM | 64.6 µM | 6.0 | 48.8 µM | 126 µM | 130 µM | – | – | – | –
9 | almiramide A [compound 1] | – | inactive | – | – | – | – | – | – | – | – | – | –
10 | C#CCCCCC(=O)N[C@H](C(=O)N[C@H](C(=O)N[C@H](C(=O)N[C@H]1CCN([C@H](Cc2ccccc2)C(=O)NCCCCCCN)C1=O)C(C)C)C(C)C)C(C)C [R-32, HCC(CH2)4CO-Val-Val-Val-Agl-D-Phe-NH(CH2)6NH2] | – | – | – | 92.6 µM | 3.6 | 111 µM | 123 µM | 118 µM | – | 338 µM | – | –
11 | C#CCCCCC(=O)N(C)[C@H](C(=O)N(C)[C@H](C(=O)N(C)[C@H]1CCN([C@@H](C)C(=O)N(C)[C@@H](Cc2ccccc2)C(=O)NCCCCCCN)C1=O)C(C)C)C(C)C [peptide 35, HCC(CH2)4CO-Val(Me)-Val(Me)-Agl(Me)-Ala-Phe(Me)-NH(CH2)6NH2] | – | – | 371 µM | 78.6 µM | 4.7 | 81.5 µM | 85.3 µM | 92 µM | – | – | 1.5 fold | 1.4 fold
12 | C#CCCCCC(=O)N[C@H](C(=O)N(C)[C@H](C(=O)N[C@H](C(=O)N[C@@H](C)C(=O)N[C@@H](Cc1ccccc1)C(=O)NCCCCCCN)C(C)C)C(C)C)C(C)C [compound 19, HCC(CH2)4CO-Val-Val(Me)-Val-Ala-Phe-NH(CH2)6NH2] (Hept6ynoyl-V[NMeV]VAF-{NH(CH2)6NH2}) | – | – | 316 µM | 81.2 µM | 3.9 | 78.9 µM | 89.2 µM | 70.3 µM | – | – | – | –
